Key:
Format in all cases: biochemical
CDK9/CycT1 = CDK9/CycT1 (Homo sapiens, UniProt P50750); assay: ADP-Glo kinase assay on CDK enzymatic activity, CDK9/CycT1; conditions: 10 concentrations from 10 μM, 4-fold, 60 min room temperature
Excerpt: (§1) Test samples: the compounds of the present invention, having structures shown above.
(§2) ADP-Glo Kinase Assay (ADP-Glo kinase kit), DMSO (dimethyl sulfoxide), CDK9/CycT1 (cyclin-dependent kinase 9/cyclin T1), CDK tide (cyclin-dependent kinase substrate peptide fragments), CDK1/CycE1 (cyclin-dependent kinase 1/cyclin E1), CDK2/CycA2 (cyclin-dependent kinase 2/cyclin A2), CDK3/CycE1 (cyclin-dependent kinase 3/cyclin E1), CDK4/CycD3 (cyclin-dependent kinase 4/cyclin D3), CDK5/p25NCK (cyclin-dependent kinase 5/p25), and AZD 4573.
(§3) A 384-well white plate, a 96-well plate, a microplate oscillator, a centrifuge, and a microplate reader.
(§4) The compounds were dissolved in DMSO and diluted 4-fold in the 96-well plate to obtain stock solutions with 10 concentration gradients, and added into a 384-well plate system to obtain a series of 10 concentration gradients of compound solutions with final concentrations of 10 μM starting and 4-fold gradient decreasing. 1 μM AZD4573 was used as compound positive control (PC) and 0.5% DMSO as solvent vehicle control (VC), ten duplicated wells each for PC and VC.
(§5) 1 μL of compound solution and 2 μL of 2× kinase solution were transferred to each well, and the plate was centrifuged at 1000 g for 30 s and left at room temperature for 10 min. A mixture of 2× substrate and ATP was prepared in 1× kinase buffer. The reaction was started after adding 2 μL of substrate and ATP into the plate. The plate was centrifuged at 1000 g for 30 s. The assay plate was closed and left at room temperature for 60 min. The reaction system was added with 4 μL of ADP Glo reagent, centrifuged at 1000 rpm for 1 min, and incubated at room temperature for 40 min. The reaction system was added with 8 μL of kinase assay reagent, centrifuged at 1000 rpm for 1 min and incubated at room temperature for 40 min. The […] was read on Biotek.
(§6) The inhibition rate was calculated according to the following formula: […]
(§7) Lumcmpd: compound fluorescence reading; Lumpositive: average value of the fluorescence reading of positive compound control; Lumvehicle: average value of the fluorescence reading of solvent vehicle control.
(§8) IC50 values were fitted using GraphPad 7.0 based on inhibition rates of compounds at different concentrations.

CDK2/CycA2 = CDK2/CycA2 (Homo sapiens, UniProt P24941); assay: ADP-Glo kinase assay on CDK enzymatic activity, CDK2/CycA2; conditions: 10 concentrations from 10 μM, 4-fold, 60 min room temperature
Excerpt: as §1, §2, §3, §4, §5, §6, §7, §8

CDK3/CycE1 = CDK3/CycE1 (Homo sapiens, UniProt Q00526); assay: ADP-Glo kinase assay on CDK enzymatic activity, CDK3/CycE1; conditions: 10 concentrations from 10 μM, 4-fold, 60 min room temperature
Excerpt: as §1, §2, §3, §4, §5, §6, §7, §8

CDK5/p25NCK = CDK5/p25NCK (Homo sapiens, UniProt Q00535); assay: ADP-Glo kinase assay on CDK enzymatic activity, CDK5/p25NCK; conditions: 10 concentrations from 10 μM, 4-fold, 60 min room temperature
Excerpt: as §1, §2, §3, §4, §5, §6, §7, §8

CDK1/CycE1 = CDK1/CycE1 (Homo sapiens, UniProt P06493); assay: ADP-Glo kinase assay on CDK enzymatic activity, CDK1/CycE1; conditions: ADP-Glo; 10 concentrations from 10 μM, 4-fold; 60 min room temperature; read-out: CDK1/CycE1/nM (IC50)
Description: as §1, §3, §4, §5, §6, §7, §8

CDK9/CycT1, sequence (P50750 whole entry): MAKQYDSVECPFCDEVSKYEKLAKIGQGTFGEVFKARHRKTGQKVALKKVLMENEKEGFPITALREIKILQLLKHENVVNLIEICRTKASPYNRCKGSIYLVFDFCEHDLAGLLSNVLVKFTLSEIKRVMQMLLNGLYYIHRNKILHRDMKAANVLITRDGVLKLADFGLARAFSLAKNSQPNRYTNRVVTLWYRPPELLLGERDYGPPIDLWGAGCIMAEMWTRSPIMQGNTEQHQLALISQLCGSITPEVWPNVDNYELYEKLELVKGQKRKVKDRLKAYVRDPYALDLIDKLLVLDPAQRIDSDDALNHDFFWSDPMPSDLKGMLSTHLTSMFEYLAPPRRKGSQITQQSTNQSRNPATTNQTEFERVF
CDK9/CycT1, sequence (O60563 whole entry partner): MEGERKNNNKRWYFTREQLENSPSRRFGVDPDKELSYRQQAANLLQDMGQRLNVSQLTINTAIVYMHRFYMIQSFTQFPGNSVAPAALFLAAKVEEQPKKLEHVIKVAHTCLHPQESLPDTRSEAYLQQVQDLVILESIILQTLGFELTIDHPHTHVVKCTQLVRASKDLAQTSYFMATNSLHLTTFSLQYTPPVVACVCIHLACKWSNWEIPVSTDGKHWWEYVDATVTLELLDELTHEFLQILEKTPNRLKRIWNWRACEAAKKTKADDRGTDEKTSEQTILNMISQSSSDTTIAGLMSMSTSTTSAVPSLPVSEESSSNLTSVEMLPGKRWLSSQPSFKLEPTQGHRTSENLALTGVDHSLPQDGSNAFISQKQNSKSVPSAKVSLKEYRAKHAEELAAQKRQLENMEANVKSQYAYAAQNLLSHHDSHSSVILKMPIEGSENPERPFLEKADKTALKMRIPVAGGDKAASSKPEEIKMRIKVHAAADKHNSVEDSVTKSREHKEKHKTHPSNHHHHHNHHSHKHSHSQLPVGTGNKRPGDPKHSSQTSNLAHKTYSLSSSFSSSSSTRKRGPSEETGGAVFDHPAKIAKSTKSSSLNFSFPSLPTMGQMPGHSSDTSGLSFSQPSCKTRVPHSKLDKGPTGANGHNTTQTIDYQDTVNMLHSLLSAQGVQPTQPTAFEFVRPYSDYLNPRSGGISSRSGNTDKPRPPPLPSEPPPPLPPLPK
CDK1/CycE1, sequence (P06493 whole entry, species assumed): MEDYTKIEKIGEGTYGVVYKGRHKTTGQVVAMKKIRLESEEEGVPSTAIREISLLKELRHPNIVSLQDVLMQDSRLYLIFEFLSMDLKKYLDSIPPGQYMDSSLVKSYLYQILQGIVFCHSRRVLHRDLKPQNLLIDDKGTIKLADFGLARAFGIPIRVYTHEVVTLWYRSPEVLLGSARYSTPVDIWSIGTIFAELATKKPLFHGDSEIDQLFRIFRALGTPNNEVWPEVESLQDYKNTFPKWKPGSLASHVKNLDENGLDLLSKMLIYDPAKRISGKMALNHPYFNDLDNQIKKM
CDK1/CycE1, sequence (P24864 whole entry partner, species assumed): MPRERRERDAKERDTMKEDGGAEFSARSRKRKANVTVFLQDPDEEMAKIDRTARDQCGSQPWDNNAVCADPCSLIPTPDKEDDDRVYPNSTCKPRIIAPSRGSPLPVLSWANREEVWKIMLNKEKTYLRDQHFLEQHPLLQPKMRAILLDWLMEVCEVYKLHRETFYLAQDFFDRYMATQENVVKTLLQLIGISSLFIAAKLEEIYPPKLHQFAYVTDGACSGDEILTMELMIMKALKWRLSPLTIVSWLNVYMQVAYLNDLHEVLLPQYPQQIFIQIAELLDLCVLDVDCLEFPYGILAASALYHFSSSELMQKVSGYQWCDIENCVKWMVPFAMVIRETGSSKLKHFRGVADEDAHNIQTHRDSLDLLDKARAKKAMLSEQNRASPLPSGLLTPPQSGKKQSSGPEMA
CDK5/p25NCK, sequence (Q00535 whole entry, species assumed): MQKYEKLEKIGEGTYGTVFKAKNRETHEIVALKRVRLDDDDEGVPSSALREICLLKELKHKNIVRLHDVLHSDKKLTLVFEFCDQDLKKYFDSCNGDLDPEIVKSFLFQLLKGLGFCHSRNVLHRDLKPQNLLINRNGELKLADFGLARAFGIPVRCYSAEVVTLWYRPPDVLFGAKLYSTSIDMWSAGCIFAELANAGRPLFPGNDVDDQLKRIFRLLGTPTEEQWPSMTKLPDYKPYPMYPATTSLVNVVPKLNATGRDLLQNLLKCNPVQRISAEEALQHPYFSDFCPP
CDK5/p25NCK, sequence (Q15078 99-307 partner limits assumed, species assumed): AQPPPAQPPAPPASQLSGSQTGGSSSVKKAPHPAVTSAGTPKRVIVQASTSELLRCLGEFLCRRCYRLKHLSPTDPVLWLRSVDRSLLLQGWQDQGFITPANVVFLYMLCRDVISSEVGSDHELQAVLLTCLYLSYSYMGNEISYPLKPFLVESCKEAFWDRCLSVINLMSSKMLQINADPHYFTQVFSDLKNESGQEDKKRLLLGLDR
CDK3/CycE1, sequence (Q00526 whole entry, species assumed): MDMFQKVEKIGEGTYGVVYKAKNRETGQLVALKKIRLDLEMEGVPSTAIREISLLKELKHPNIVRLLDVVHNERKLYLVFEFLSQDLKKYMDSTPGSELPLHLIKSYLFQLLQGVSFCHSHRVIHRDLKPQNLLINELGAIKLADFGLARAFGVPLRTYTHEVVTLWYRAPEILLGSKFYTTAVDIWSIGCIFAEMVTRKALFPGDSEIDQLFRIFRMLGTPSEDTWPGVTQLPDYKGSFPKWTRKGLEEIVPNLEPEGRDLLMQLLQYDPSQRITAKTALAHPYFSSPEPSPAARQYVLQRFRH
CDK3/CycE1, sequence (P24864 whole entry partner, species assumed): as the sequence (P24864 whole entry partner, species assumed) above

Row | SMILES | IC50 (CDK9/CycT1) | IC50 (CDK2/CycA2) | IC50 (CDK3/CycE1) | IC50 (CDK5/p25NCK) | IC50 (CDK1/CycE1)
1 | CC(=O)N[C@@H]1CCC[C@H](C(=O)Nc2cc3c(NC(C)C)nc(C#N)cc3cn2)C1 [Compound 2, (1S,3R)-3-acetamido-N-(7-cyano-5-(isopropylamino)-2,6-naphthyridin-3-yl)cyclohexane-1-carboxamide] | 8 nM | 669 nM | 179 nM | 783 nM | –
2 | C#Cc1cc2cnc(NC(=O)[C@H]3CCC[C@@H](NC(C)=O)C3)cc2c(NC(C)C)n1 [Compound 13, (1S,3R)-3-acetamido-N-(7-ethynyl-5-(isopropylamino)-2,6-naphthyridin-3-yl)cyclohexane-1-carboxamide] | 13 nM | 402 nM | 41 nM | 527 nM | –
3 | CC(C)Nc1nc(C#N)cc2cnc(N[C@H]3C[C@](C)(N)C3)cc12 [Compound 209, 7-((trans)-3-amino-3-methylcyclobutyl)amino-1-(isopropylamino)-2,6-naphthyridine-3-carbonitrile] | 2 nM | 306 nM | – | – | 170 nM
4 | CC1(Nc2nc(C#N)cc3cnc(N[C@H]4C[C@](C)(N)C4)cc23)CC1 [Compound 211, 7-((trans)-3-amino-3-methylcyclobutyl)amino-1-((1-methylcyclopropyl)amino)-2,6-naphthyridine-3-carbonitrile] | 3 nM | 434 nM | – | – | 233 nM
5 | CC(C)Nc1nc(C#N)cc2cnc(N[C@H]3CCCCNC3)nc12 [Compound C6, (S)-2-(azepan-3-ylamino)-8-(isopropylamino)pyrido[3,4-d]pyrimidine-6-carbonitrile] | 4 nM | 330 nM | – | – | 202 nM
6 | CC(C)(C)Nc1nc(C#N)cc2cnc(N[C@H]3CCCNC3)nc12 [Compound C7, (S)-8-(tert-butylamino)-2-(piperidin-3-ylamino)pyrido[3,4-d]pyrimidine-6-carbonitrile] | 3 nM | 144 nM | – | – | 74 nM
7 | CC(C)(C)Nc1nc(C(F)F)cc2cnc(N[C@H]3C[C@H](O)C3)nc12 [Compound C8, (1r,3r)-3-((8-(tert-butylamino)-6-(difluoromethyl)pyrido[3,4-d]pyrimidin-2-yl)amino)cyclobutan-1-ol] | 2 nM | 5 nM | – | – | 8 nM
8 | CC(C)(C)Nc1nc(C#N)cc2cnc(N[C@H]3C[C@H](O)C3)nc12 [Compound C9, 8-(tert-butylamino)-2-(((1r,3r)-3-hydroxycyclobutyl)amino)pyrido[3,4-d]pyrimidine-6-carbonitrile] | 1 nM | 8 nM | – | – | 8 nM
9 | N#Cc1cc2cnc(N[C@H]3C[C@H](N)C3)nc2c(N[C@@H]2CCOC2)n1 [Compound C13, 2-(((1r,3R)-3-aminocyclobutyl)amino)-8-(((R)-tetrahydrofuran-3-yl)amino)pyrido[3,4-d]pyrimidine-6-carbonitrile] | 2 nM | 85 nM | – | – | 187 nM
10 | CCCNc1nc(C#N)cc2cnc(N[C@H]3C[C@H](N)C3)nc12 [Compound C14, 2-(((1r,3r)-3-aminocyclobutyl)amino)-8-(propylamino)pyrido[3,4-d]pyrimidine-6-carbonitrile] | 2 nM | 32 nM | – | – | 127 nM
11 | N#Cc1cc2cnc(N[C@H]3C[C@H](N)C3)nc2c(N2CCCCC2)n1 [Compound C15, 2-(((1r,3r)-3-aminocyclobutyl)amino)-8-(piperidin-1-yl)pyrido[3,4-d]pyrimidine-6-carbonitrile] | 2 nM | 253 nM | – | – | 114 nM
12 | CC(C)Nc1nc(C#N)cc2cnc(N[C@H]3C[C@H](CN)C3)nc12 [Compound C16, 2-(((1r,3r)-3-(aminomethyl)cyclobutyl)amino)-8-(isopropylamino)pyrido[3,4-d]pyrimidine-6-carbonitrile] | 2 nM | 22 nM | – | – | 81 nM
13 | CC(C)(C)Nc1nc(C#N)cc2cnc(N[C@H]3C[C@H](N)C3)nc12 [Compound C18, 2-(((1r,3r)-3-aminocyclobutyl)amino)-8-(tert-butylamino)pyrido[3,4-d]pyrimidine-6-carbonitrile] | 2 nM | 8 nM | – | – | 23 nM
14 | CN[C@H]1C[C@H](Nc2ncc3cc(C#N)nc(NC(C)C)c3n2)C1 [Compound C20, 8-(isopropylamino)-2-(((1r,3r)-3-(methylamino)cyclobutyl)amino)pyrido[3,4-d]pyrimidine-6-carbonitrile] | 1 nM | 18 nM | – | – | 71 nM
15 | CC(C)Nc1nc(C#N)cc2cnc(N[C@H]3C[C@H](N4CCN(C)CC4)C3)nc12 [Compound C22, 8-(isopropylamino)-2-(((1r,3r)-3-(4-methylpiperazin-1-yl)cyclobutyl)amino)pyrido[3,4-d]pyrimidine-6-carbonitrile] | 2 nM | 24 nM | – | – | 218 nM
16 | CC(C)Nc1nc(C#N)cc2cnc(N[C@H]3C[C@@H](N4CCN(C)CC4)C3)nc12 [Compound C23, 8-(isopropylamino)-2-(((1s,3s)-3-(4-methylpiperazin-1-yl)cyclobutyl)amino)pyrido[3,4-d]pyrimidine-6-carbonitrile] | 6 nM | 59 nM | – | – | 288 nM
17 | CC(C)Nc1nc(C#N)cc2cnc(N[C@H]3C[C@H](N(C)C)C3)nc12 [Compound C24, 2-(((1r,3r)-3-(dimethylamino)cyclobutyl)amino)-8-(isopropylamino)pyrido[3,4-d]pyrimidine-6-carbonitrile] | 2 nM | 115 nM | – | – | 142 nM
18 | CC(C)CNc1nc(C#N)cc2cnc(N[C@H]3C[C@H](N)C3)nc12 [Compound C25, 2-(((1r,3r)-3-aminocyclobutyl)amino)-8-(isobutylamino)pyrido[3,4-d]pyrimidine-6-carbonitrile] | 1 nM | 34 nM | – | – | 86 nM
19 | CC(C)Nc1nc(C#N)cc2cnc(N[C@H]3C[C@](C)(N)C3)nc12 [Compound C26, 2-(((1r,3r)-3-amino-3-methylcyclobutyl)amino)-8-(isopropylamino)pyrido[3,4-d]pyrimidine-6-carbonitrile] | 1 nM | 93 nM | – | – | 34 nM
20 | CCNc1nc(C#N)cc2cnc(N[C@H]3C[C@H](N)C3)nc12 [Compound C28, 2-(((1r,3r)-3-aminocyclobutyl)amino)-8-(ethylamino)pyrido[3,4-d]pyrimidine-6-carbonitrile] | 1 nM | 34 nM | – | – | 186 nM
21 | N#Cc1cc2cnc(N[C@H]3C[C@H](N)C3)nc2c(NC2CCOCC2)n1 [Compound C30, 2-(((1r,3r)-3-aminocyclobutyl)amino)-8-((tetrahydro-2H-pyran-4-yl)amino)pyrido[3,4-d]pyrimidine-6-carbonitrile] | 2 nM | 83 nM | – | – | 99 nM
22 | CC(C)Nc1nc(C#N)cc2cnc(N[C@H]3C[C@H](CO)C3)nc12 [Compound C31, 2-(((1r,3r)-3-(hydroxymethyl)cyclobutyl)amino)-8-(isopropylamino)pyrido[3,4-d]pyrimidine-6-carbonitrile] | 2 nM | 5 nM | – | – | 21 nM
23 | CC1(Nc2nc(C#N)cc3cnc(N[C@H]4C[C@H](N)C4)nc23)CC1 [Compound C35, 2-(((1r,3r)-3-aminocyclobutyl)amino)-8-((1-methylcyclopropyl)amino)pyrido[3,4-d]pyrimidine-6-carbonitrile] | 1 nM | 19 nM | – | – | 112 nM
24 | N#Cc1cc2cnc(N[C@H]3C[C@H](N)C3)nc2c(NC23CC(C2)C3)n1 [Compound C36, 2-(((1r,3r)-3-aminocyclobutyl)amino)-8-(bicyclo[1.1.1]pentan-1-ylamino)pyrido[3,4-d]pyrimidine-6-carbonitrile] | 2 nM | 32 nM | – | – | 25 nM
25 | COC[C@@H](C)Nc1nc(C#N)cc2cnc(N[C@H]3C[C@H](N)C3)nc12 [Compound C41, 2-(((1r,3R)-3-aminocyclobutyl)amino)-8-(((R)-1-methoxypropan-2-yl)amino)pyrido[3,4-d]pyrimidine-6-carbonitrile] | 1 nM | 82 nM | – | – | 540 nM

Reference: US20250163043A1 (TRANSTHERA SCIENCES (NANJING), INC., priority 2021, published 2025)
